In ChEMBL document CHEMBL1158870, “Antitumor agents. 180. Chemical Studies and cytotoxic evaluation of cumingianosides and cumindysoside A, antileukemic triterpene glucosides with a 14,18-cycloapotirucallane skeleton” (1997):

Tests used:
CCRF-CEM = assay: Cytotoxicity against human CCRF-CEM cells by SRB assay; format: functional
[1] = Cytotoxicity against human HL60(TB) cells by SRB assay; format: functional, HL-60(TB); details: HL-60
K562 = assay: Cytotoxicity against human K562 cells by SRB assay; format: functional
MOLT-4 = assay: Cytotoxicity against human MOLT4 cells by SRB assay; format: functional
RPMI-8226 = assay: Cytotoxicity against human RPMI8226 cells by SRB assay; format: functional
SR = assay: Cytotoxicity against human SR cells by SRB assay; format: functional
A549 = assay: Cytotoxicity against human A549 cells by SRB assay; format: functional
EKVX = assay: Cytotoxicity against human EKVX cells by SRB assay; format: functional
HOP-62 = assay: Cytotoxicity against human HOP62 cells by SRB assay; format: functional
HOP-92 = assay: Cytotoxicity against human HOP92 cells by SRB assay; format: functional
NCI-H226 = assay: Cytotoxicity against human NCI-H226 cells by SRB assay; format: functional
NCI-H23 = assay: Cytotoxicity against human NCI-H23 cells by SRB assay; format: functional
NCI-H322M = assay: Cytotoxicity against human NCI-H322M cells by SRB assay; format: functional
NCI-H460 = assay: Cytotoxicity against human NCI-H460 cells by SRB assay; format: functional
NCI-H522 = assay: Cytotoxicity against human NCI-H522 cells by SRB assay; format: functional
COLO 205 = assay: Cytotoxicity against human COLO205 cells by SRB assay; format: functional
HCC 2998 = assay: Cytotoxicity against human HCC2998 cells by SRB assay; format: functional
HCT-116 = assay: Cytotoxicity against human HCT116 cells by SRB assay; format: functional
HCT-15 = assay: Cytotoxicity against human HCT15 cells by SRB assay; format: functional
HT-29 = assay: Cytotoxicity against human HT29 cells by SRB assay; format: functional
KM12 = assay: Cytotoxicity against human KM12 cells by SRB assay; format: functional
SW-620 = assay: Cytotoxicity against human SW620 cells by SRB assay; format: functional
SF-268 = assay: Cytotoxicity against human SF268 cells by SRB assay; format: functional
SF-295 = assay: Cytotoxicity against human SF295 cells by SRB assay; format: functional
SNB-19 = assay: Cytotoxicity against human SNB19 cells by SRB assay; format: functional
SNB-75 = assay: Cytotoxicity against human SNB75 cells by SRB assay; format: functional
U-251 = assay: Cytotoxicity against human U251 cells by SRB assay; format: functional
LOX IMVI = assay: Cytotoxicity against human LOXIMVI cells by SRB assay; format: functional
Malme-3M = assay: Cytotoxicity against human MALME-3M cells by SRB assay; format: functional
M14 = assay: Cytotoxicity against human M14 cells by SRB assay; format: functional
SK-MEL-2 = assay: Cytotoxicity against human SK-MEL-2 cells by SRB assay; format: functional
SK-MEL-28 = assay: Cytotoxicity against human SK-MEL-28 cells by SRB assay; format: functional
SK-MEL-5 = assay: Cytotoxicity against human SK-MEL-5 cells by SRB assay; format: functional
UACC-257 = assay: Cytotoxicity against human UACC257 cells by SRB assay; format: functional
UACC-62 = assay: Cytotoxicity against human UACC62 cells by SRB assay; format: functional
IGROV-1 = assay: Cytotoxicity against human IGROV1 cells by SRB assay; format: functional
OVCAR-3 = assay: Cytotoxicity against human OVCAR-3 cells by SRB assay; format: functional
OVCAR-4 = assay: Cytotoxicity against human OVCAR4 cells by SRB assay; format: functional
OVCAR-5 = assay: Cytotoxicity against human OVCAR5 cells by SRB assay; format: functional
OVCAR-8 = assay: Cytotoxicity against human OVCAR8 cells by SRB assay; format: functional
SK-OV-3 = assay: Cytotoxicity against human SKOV3 cells by SRB assay; format: functional
[2] = Cytotoxicity against human 786-O cells by SRB assay; format: functional; details: 786-0
A498 = assay: Cytotoxicity against human A498 cells by SRB assay; format: functional
ACHN = assay: Cytotoxicity against human ACHN cells by SRB assay; format: functional
CAKI-1 = assay: Cytotoxicity against human Caki1 cells by SRB assay; format: functional
RXF 393 = assay: Cytotoxicity against human RXF393 cells by SRB assay; format: functional
SN12C = assay: Cytotoxicity against human SN12C cells by SRB assay; format: functional
UO-31 = assay: Cytotoxicity against human UO31 cells by SRB assay; format: functional
PC-3 = assay: Cytotoxicity against human PC3 cells by SRB assay; format: functional
DU-145 = assay: Cytotoxicity against human DU145 cells by SRB assay; format: functional
MCF7 = assay: Cytotoxicity against human MCF7 cells by SRB assay; format: functional
[3] = Cytotoxicity against human MCF7/ADR cells by SRB assay; format: functional; details: NCI/ADR-RES
MDA-MB-231 = assay: Cytotoxicity against human MDA-MB-231 cells by SRB assay; format: functional
[4] = Cytotoxicity against human Hs 578T cells by SRB assay; format: functional
MDA-MB-435 = assay: Cytotoxicity against human MDA-MB-435 cells by SRB assay; format: functional
MDA-N = assay: Cytotoxicity against human MDA-N cells by SRB assay; format: functional
BT-549 = assay: Cytotoxicity against human BT549 cells by SRB assay; format: functional
T47D = assay: Cytotoxicity against human T47D cells by SRB assay; format: functional
Leukemia cell = assay: Cytotoxicity against human Leukemia cells by SRB assay; format: functional
NSCLC = assay: Cytotoxicity against human NSCLC cells by SRB assay; format: functional
[5] = Cytotoxicity against human Colon cancer cells by SRB assay; format: functional; details: Cancer cell lines
[6] = Cytotoxicity against human CNS cancer cells by SRB assay; format: functional; details: Cancer cell lines
[7] = Cytotoxicity against human melanoma cells by SRB assay; format: functional; details: Melanoma cell
[8] = Cytotoxicity against human ovarian cancer cells by SRB assay; format: functional; details: Cancer cell lines
[9] = Cytotoxicity against human prostate cancer cells by SRB assay; format: functional; details: Cancer cell lines
[10] = Cytotoxicity against human breast cancer cells by SRB assay; format: functional; details: Cancer cell lines
[11] = Cytotoxicity against human renal cancer cells by SRB assay; format: functional; details: Cancer cell lines

C=C(C)[C@@H](O)[C@H](O)C[C@H](C)[C@@H]1CC[C@]2(C)C1=CC[C@@H]1[C@@]3(C)CC[C@@H](OC(C)=O)C(C)(C)[C@@H]3C[C@@H](O[C@@H]3O[C@H](COC(C)=O)[C@@H](O)[C@H](O)[C@H]3O)[C@]12C
GI50 (CCRF-CEM): 2.24 µM | GI50 [1]: 2.09 µM | GI50 (K562): 1.91 µM | GI50 (MOLT-4): 2.29 µM | GI50 (RPMI-8226): 1.91 µM | GI50 (SR): 1.91 µM | GI50 (A549): 3.24 µM | GI50 (EKVX): 3.16 µM | GI50 (HOP-62): 2.63 µM | GI50 (HOP-92): 2.34 µM | GI50 (NCI-H226): 3.02 µM | GI50 (NCI-H23): 4.17 µM | GI50 (NCI-H322M): 1.86 µM | GI50 (NCI-H460): 2.45 µM | GI50 (NCI-H522): 1.82 µM | GI50 (COLO 205): 2.04 µM | TGI (COLO 205): 3.5 µM | GI50 (HCC 2998): 0.0776 µM | TGI (HCC 2998): 0.9 µM | GI50 (HCT-116): 1.86 µM | TGI (HCT-116): 3.5 µM | GI50 (HCT-15): 2.95 µM | TGI (HCT-15): 10 µM | GI50 (HT-29): 1.91 µM | TGI (HT-29): 3.8 µM | GI50 (KM12): 1.58 µM | TGI (KM12): 3 µM | GI50 (SW-620): 3.02 µM | TGI (SW-620): 10.4 µM | GI50 (SF-268): 2.82 µM | GI50 (SF-295): 2.19 µM | GI50 (SNB-19): 3.89 µM | GI50 (SNB-75): 1.86 µM | GI50 (U-251): 2.19 µM | GI50 (LOX IMVI): 1.62 µM | GI50 (Malme-3M): 1.58 µM | GI50 (M14): 2.09 µM | GI50 (SK-MEL-2): 2 µM | GI50 (SK-MEL-28): 2.34 µM | GI50 (SK-MEL-5): 1.91 µM | GI50 (UACC-257): 2.75 µM | GI50 (UACC-62): 1.51 µM | GI50 (IGROV-1): 2.34 µM | GI50 (OVCAR-3): 1.86 µM | GI50 (OVCAR-4): 2.95 µM | GI50 (OVCAR-5): 1.91 µM | GI50 (OVCAR-8): 3.63 µM | GI50 (SK-OV-3): 2.88 µM | GI50 [2]: 3.72 µM | GI50 (A498): 3.89 µM | GI50 (ACHN): 1.91 µM | GI50 (CAKI-1): 2.63 µM | GI50 (RXF 393): 2.09 µM | GI50 (SN12C): 3.09 µM | GI50 (UO-31): 3.89 µM | GI50 (PC-3): 2.14 µM | GI50 (DU-145): 2.57 µM | GI50 (MCF7): 2.75 µM | GI50 [3]: 16.2 µM | GI50 (MDA-MB-231): 1.86 µM | GI50 [4]: 2.34 µM | GI50 (MDA-MB-435): 1.95 µM | GI50 (MDA-N): 2.34 µM | GI50 (BT-549): 3.39 µM | GI50 (T47D): 2.57 µM | TGI (Leukemia cell): 5.1 µM | TGI (NSCLC): 9 µM | TGI [5]: 5 µM | TGI [6]: 9.5 µM | TGI [7]: 4.2 µM | TGI [8]: 7.4 µM | TGI [9]: 7 µM | TGI [10]: 10.7 µM | TGI [11]: 9.7 µM

CC(=O)OC[C@H]1O[C@@H](O[C@@H]2C[C@H]3C(C)(C)[C@H](OC(C)=O)CC[C@]3(C)[C@H]3CC[C@@H]4[C@]5(CC[C@@]4(C)[C@@]32C)O[C@@H]([C@H](O)C(C)(C)O)C[C@@H]5C)[C@H](O)[C@@H](O)[C@@H]1O
GI50 (CCRF-CEM): 3.16 µM | GI50 [1]: 2.95 µM | GI50 (K562): 4.47 µM | GI50 (MOLT-4): 3.16 µM | GI50 (RPMI-8226): 3.39 µM | GI50 (SR): 3.09 µM | GI50 (A549): 5.13 µM | GI50 (EKVX): 9.55 µM | GI50 (HOP-62): 14.1 µM | GI50 (HOP-92): 10 µM | GI50 (NCI-H226): 10.7 µM | GI50 (NCI-H23): 12.9 µM | GI50 (NCI-H322M): 1.7 µM | GI50 (NCI-H460): 6.61 µM | GI50 (NCI-H522): 7.08 µM | GI50 (COLO 205): 4.07 µM | TGI (COLO 205): 14.3 µM | GI50 (HCC 2998): 3.63 µM | TGI (HCC 2998): 15.9 µM | GI50 (HCT-116): 3.8 µM | TGI (HCT-116): 15.1 µM | GI50 (HCT-15): 2.19 µM | TGI (HCT-15): 5.9 µM | GI50 (HT-29): 1.82 µM | TGI (HT-29): 4.3 µM | GI50 (KM12): 2 µM | TGI (KM12): 7.7 µM | GI50 (SW-620): 10.5 µM | TGI (SW-620): 22.9 µM | GI50 (SF-268): 9.33 µM | GI50 (SF-295): 6.46 µM | GI50 (SNB-19): 12.6 µM | GI50 (SNB-75): 5.13 µM | GI50 (U-251): 10.7 µM | GI50 (LOX IMVI): 3.63 µM | GI50 (Malme-3M): 10.2 µM | GI50 (M14): 5.01 µM | GI50 (SK-MEL-2): 6.03 µM | GI50 (SK-MEL-28): 10.2 µM | GI50 (SK-MEL-5): 10.7 µM | GI50 (UACC-257): 11.5 µM | GI50 (UACC-62): 6.31 µM | GI50 (IGROV-1): 9.55 µM | GI50 (OVCAR-3): 7.08 µM | GI50 (OVCAR-4): 3.39 µM | GI50 (OVCAR-5): 5.13 µM | GI50 (OVCAR-8): 9.33 µM | GI50 (SK-OV-3): 7.94 µM | GI50 [2]: 8.71 µM | GI50 (A498): 11.7 µM | GI50 (ACHN): 9.33 µM | GI50 (CAKI-1): 25.7 µM | GI50 (RXF 393): 4.07 µM | GI50 (SN12C): 11.2 µM | GI50 (UO-31): 7.76 µM | GI50 (PC-3): 3.8 µM | GI50 (DU-145): 10.7 µM | GI50 (MCF7): 1.07 µM | GI50 [3]: 16.2 µM | GI50 (MDA-MB-231): 10.2 µM | GI50 [4]: 9.33 µM | GI50 (MDA-MB-435): 8.32 µM | GI50 (MDA-N): 7.08 µM | GI50 (BT-549): 12 µM | GI50 (T47D): 5.62 µM | TGI (Leukemia cell): 17.3 µM | TGI (NSCLC): 21.8 µM | TGI [5]: 12.3 µM | TGI [6]: 22.2 µM | TGI [7]: 20.7 µM | TGI [8]: 20.1 µM | TGI [9]: 18.5 µM | TGI [10]: 21.3 µM | TGI [11]: 20.5 µM
